For 64 compounds, melting point results are on record in a melting point compilation (Tetko et al.; mined from patent text by program, amines drawn as free bases though some values may be those of a salt).

Regarding `Cc1cc(C(C)(C)C)c(OP2OP(Oc3c(C(C)(C)C)cc(C)cc3C(C)(C)C)OP(Oc3c(C(C)(C)C)cc(C)cc3C(C)(C)C)O2)c(C(C)(C)C)c1` (centres undefined), the melting point (as a rule, the temperature, or range, at which the solid turns liquid) lay within 176 to 181 °C.

For the compound `CC(=O)c1ccc(Nc2nc(N)c(C(=O)c3ccccc3[N+](=O)[O-])s2)cc1`, the melting point fell in the range of 264 to 265 °C.

Regarding `COc1cc2c(cc1Nc1ncc(Cl)c(Nc3cc(C(N)=O)ccc3OC)n1)CCN(CCS(C)(=O)=O)CC2`, the melting point was in the range of 232 to 243 °C.

Take `O=c1c2cc(O)cc(O)c2cc2n1CCCC2`: the melting point was in the range of 214 to 215 °C.

Take `N#CC1CN1C(=O)NC(=O)C1CCCCC1` (centres undefined): the melting point fell in the range of 142 to 144 °C.

As to `Cc1ccc(C=CC(=O)c2ccc3c(c2)C(C)(C)CCC3(C)C)cc1`, the melting point is 153 to 154 °C.

As to `COc1cc(CCNC(=O)c2ccccc2)cc2c1OC(C)(C)C2`, the melting point is 137 to 138 °C.

As to `CNc1nc(-c2ccc(Cl)c(Cl)c2)ncc1N(C)C(=O)N1CCOCC1`, the melting point turned out to be 227 °C.

`CCOC(=O)C(=O)Nc1cc(C(F)(F)F)c(S(=O)(=O)NC(=O)C(=O)OCC)cc1[N+](=O)[O-]`: the melting point was 175 to 180 °C.

With `COCCn1cnc2ccc(-c3sc(N)nc3-c3cccc(C)n3)cc21`, the melting point was 200 to 202 °C.

For `COC(=O)c1nc(N2CCCC2)ccc1O`, the melting point was in the range of 82.5 to 84 °C.

Compound `CC1(C)Cc2sccc2C=[N+]1[O-]` displayed a melting point of 130 to 131 °C.

Take `Fc1ccc2c(c1)Oc1ccccc1-c1nc(S)[nH]c1-2`: the melting point was in the range of 299 to 300 °C.

In turn, `CN1C(=O)OC(C)(C)c2cc(-c3cccc(Br)c3)ccc21` returned a melting point of 142 to 143 °C.

In turn, `COc1cc(C(=O)N[C@@H](CCC(=O)O)C(=O)O)ccc1NCCCc1c(N)nc(N)[nH]c1=O` displayed a melting point of 165 to 184 °C.

As to `CCCCOC(=O)c1ccc(NC2=NC3=NC(Nc4ccc(C(=O)OCCCC)cc4)=NC4=NC(Nc5ccc(C(=O)OCCCC)cc5)=NC(=N2)N34)cc1`, the melting point is 289 to 290 °C.

On to `COc1c(F)c(F)cc2c(=O)c(C(=O)O)cn(C3CC3)c12`, for which the melting point is 185 to 186 °C.

Consider `C[C@@H]1N(c2ccc(C#N)c(Cl)c2)C(=O)C[C@]1(C)O`, for which the melting point lay within 93 to 99 °C.

`CCCC12CCC(CC(=O)O)(CC1)CC2` showed a melting point of 85 °C.

For the compound `COCCCNC(=O)c1ccc(C(=O)N2CCN(c3ncccc3NCC(C)C)CC2)nc1`, the melting point is 109 to 110 °C.

Compound `N#CC(N)c1cccc(Cl)c1` (centres undefined) had a melting point of 31 to 33 °C.

On to `COC(=O)c1ccc(C(=O)NS(=O)(=O)c2ccc(C(=O)NCCc3ccccc3OC)cc2)cn1`, for which the melting point was in the range of 220 to 222 °C.

For `N#Cc1ccc2[nH]cc(CCNC(=O)OCc3ccccc3)c2c1`, the melting point is 128 to 129 °C.

`NC(=O)C(Nc1ccccc1C(=O)C1CC1)c1c(Cl)cccc1Cl` (centres undefined) yielded a melting point of 196 °C.

`CCc1ccc(Nc2ncc(Cc3ccc(O)nc3)c3ncccc23)cc1Br` had a melting point of 262 to 265 °C.

Turning to `CCCOc1ccc(C(N)=O)cc1-c1ccc(C#N)c(=O)[nH]1`, the melting point was 246 to 247 °C.

As for `COC(=O)Oc1ccc(OC)c(C=O)c1`, the melting point lay in the range of 88 to 89 °C.

The compound `O=C(O)CC(NC(=O)c1ccc2c(c1)CCC(=NNC1=NCCN1)C1=C2CCC1)c1cccnc1` (centres undefined) showed a melting point of 126 to 128 °C.

The compound `CC(C)c1ccc2nc(Cl)cn2n1` yielded a melting point of 69 to 71 °C.

In turn, `CCN(CC)CCNC(=O)c1cc(Cl)c(N)cc1OCC(=O)C(C)C` gave a melting point of 109 to 110 °C.

Consider `CC(C)(C)OC(=O)NC(C(=O)Oc1ccc(/C=c2\[nH]c(=O)/c(=C/c3ccccc3)[nH]c2=O)nc1)c1ccccc1` (centres undefined), for which the melting point stood at 198 °C.

`CCSc1c[nH]nc1C1=CCCN(C)C1` gave a melting point of 95 to 97 °C.

Turning to `COCCCn1cc(Br)c2c3c(c(-c4ccccc4Cl)cc21)C(=O)NC3=O`, the melting point is 149 to 151 °C.

Take `Cc1cc(C)nc([NH+]([O-])C(=O)Cc2ccsc2)c1` (centres undefined): the melting point was determined as 154 °C.

As to `CCOC(=O)CC(=O)NC(=O)N1CC1C#N` (centres undefined), the melting point lay within 121 to 123 °C.

`CCOC(=O)N1CCC(c2ccc3nc(-c4ccc(S(C)(=O)=O)cc4F)oc3c2)CC1`: the melting point lay in the range of 154 to 158 °C.

For `N[C@@H](Cc1cccc(OCC(F)(F)C(F)F)c1)[C@H](O)c1ccc(F)cc1` (racemic), the melting point lay within 77 to 78 °C.

In the case of `CC1(c2c[nH]cn2)CCc2ccccc21` (centres undefined), the melting point fell in the range of 164 to 171 °C.

`O=S(=O)(c1ccc(Cl)cc1)N1CCCC1c1cccs1` (racemic): the melting point amounted to 84 °C.

In turn, `Cc1cc(N2CCC(CN3CCN(S(=O)(=O)c4ccc(Cl)cc4)CC3)CC2)nc(C)n1` displayed a melting point of 73 to 74 °C.

`COc1ccc2cc(C(C)C(=O)OCC(=O)NCCCO[N+](=O)[O-])ccc2c1` (centres undefined) came in with a melting point of 51 to 53 °C.

In turn, `NC(=O)C1COc2c(F)cccc2O1` (centres undefined) had a melting point of 167 °C.

With `COC(=O)c1ccc(N2CCCC2=O)c(N)c1`, the melting point is 136 to 138 °C.

As for `CCc1noc(-c2ccc(OCCC3CN(c4ccc(Cl)nn4)CCO3)cc2)n1` (centres undefined), the melting point turned out to be 164 °C.

In the case of `N#CC(C(N)=O)c1ccc(F)c(Cl)c1` (centres undefined), the melting point was in the range of 156 to 157 °C.

As for `CC(=O)N1CCN(c2ccc([N+](=O)[O-])c(C)c2)CC1`, the melting point was 133 to 137 °C.

The compound `CCn1c(C)nc2cc(C(N)=O)ccc21` registered a melting point of 251 °C.

As for `Nc1nc(CN2CCCN(C(c3ccccc3)c3ccccc3)CC2)cs1`, the melting point lay within 152 to 156 °C.

Compound `Oc1ccc(Nc2cc(-c3cn(C(c4ccccc4)(c4ccccc4)c4ccccc4)nc3-c3ccccn3)ccn2)cc1` displayed a melting point of 198 °C.

With `Cn1c(NC(=O)OCc2ccccc2)c(-c2ccccc2)c2cc(Cl)ccc21`, the melting point amounted to 164 °C.

Compound `CCc1c(-c2ccc(OCc3ccccc3)cc2)c2cc(C(C)=O)c3ccc(OCc4ccccc4)c1n32` registered a melting point of 147 to 149 °C.

Turning to `CCCCCCC(C(=O)O)N1Cc2cc(-c3ccccc3-c3nn[nH]n3)ccc2N1` (centres undefined), the melting point fell in the range of 113 to 120 °C.

`CCOC(=O)c1c(C(C)C)c(-c2ccc(F)cc2)cn1CC` came in with a melting point of 74 to 76 °C.

Consider `COC(=O)C(=CO)N(C)C(=O)C=Cc1ccccc1Cl`, for which the melting point lay within 129 to 130 °C.

Take `CN(C)c1ccc2nc(N)c(C#N)c(NCc3cccs3)c2c1`: the melting point is 211 °C.

In the case of `CSC1C(=O)Nc2c(Oc3ccccn3)cccc21` (centres undefined), the melting point is 140 to 142 °C.

The compound `COc1ccc(C(=O)CCC(=O)N[C@@H](C)C(=O)O)cc1F` yielded a melting point of 126 to 128 °C.

For `CC(=O)N1CCC(CCc2ccc(N(C)C)cc2)CC1`, the melting point was in the range of 49 to 51 °C.

Turning to `COc1ccc(Cl)cc1C(=O)c1cc(Cl)ccc1OC`, the melting point was found to be 108 °C.

For `CC(C)N(C(=S)NC(=O)c1ccccc1)c1ccc2c(c1)OCO2`, the melting point was in the range of 152 to 154 °C.

`COc1c(N)ccc2c1C(CCNC(C)=O)CC2` (centres undefined): the melting point is 130 to 132 °C.

Take `CC(NC(=O)OC(C)(C)C)c1cc(F)c(N)c(I)c1` (centres undefined): the melting point is 88 to 90 °C.

In turn, `COC(=O)c1cc2ccc(SCc3ccc(OC)cc3)cc2nc1OC` returned a melting point of 133 to 134 °C.

For `CC(C)C(C(=O)O)c1ccc(Br)cc1` (centres undefined), the melting point fell in the range of 97 to 98 °C.
